# Assay results as given in ChEMBL document CHEMBL3272271, “Folate antagonists. 13. 2,4-Diamino-6-](alpha,alpha,alpha-trifluoro-m-tolyl)thio]quinazoline and related 2,4-diamino-6-[(phenyl- and naphthyl)thio]quinazolines, a unique class of antimetabolites with extraordinary antimalarial and antibacterial effects” (J Med Chem, 1978).
# Activity calls are given as the source filed them. The calls are words filed in the database; no cut-off is given here.
# How the values were obtained:
# [1] = system: Plasmodium gallinaceum; assay: Antimalarial activity against trophozoite-induced Plasmodium gallinaceum infected in white leghorn chicken assessed as increase in mean survival days of host at 10 mg/kg, sc administered 72 hrs after infection relative to control; format: functional; conditions: route subcutaneous
# [2] = system: Shigella sonnei; assay: Antibacterial activity against Shigella sonnei C-10 by gradient plate test; format: functional
# [3] = system: Plasmodium gallinaceum; assay: Antimalarial activity against trophozoite-induced Plasmodium gallinaceum infected in white leghorn chicken assessed as disease cure from parasite infection at 160 mg/kg, sc administered 72 hrs after infection; format: functional, organism-based; design: dose 160 mg/kg
# [4] = system: Plasmodium berghei; assay: Ratio of quinine hydrochloride SD90 to compound SD90 for trophozoite-induced Plasmodium berghei infected in mouse assessed as daily dose required to suppression of 90% parasite infection administered with diet for 6 days; format: functional
# [5] = system: Plasmodium berghei; assay: Antimalarial activity against Plasmodium berghei infected in mouse assessed as disease cure from parasite infection at 40 mg/kg, sc administered 72 hrs after infection; format: functional, organism-based; design: dose 40 mg/kg
# [6] = system: Enterococcus faecalis; assay: Antibacterial activity against Streptococcus faecalis MGH-2 by gradient plate test; format: functional
# [7] = system: Plasmodium berghei; assay: Antimalarial activity against Plasmodium berghei infected in mouse assessed as increase in mean survival days of host at 2.5 mg/kg, sc administered 72 hrs after infection relative to control; format: functional; conditions: route subcutaneous
# [8] = system: Plasmodium gallinaceum; assay: Antimalarial activity against trophozoite-induced Plasmodium gallinaceum infected in white leghorn chicken assessed as increase in mean survival days of host at 320 mg/kg, sc administered 72 hrs after infection relative to control; format: functional; conditions: route subcutaneous
# [9] = system: Plasmodium gallinaceum; assay: Antimalarial activity against sporozoite-induced Plasmodium gallinaceum infected in white leghorn chicken assessed as disease cure from parasite infection at 20 mg/kg, sc administered 72 hrs after infection; format: functional, organism-based; design: dose 20 mg/kg
# [10] = system: Plasmodium gallinaceum; assay: Antimalarial activity against sporozoite-induced Plasmodium gallinaceum infected in white leghorn chicken assessed as increase in mean survival days of host at 10 mg/kg, sc administered 72 hrs after infection relative to control; format: functional; conditions: route subcutaneous
# [11] = system: Plasmodium berghei; assay: Antimalarial activity against Plasmodium berghei infected in mouse assessed as increase in mean survival days of host at 20 mg/kg, sc administered 72 hrs after infection relative to control; format: functional; conditions: route subcutaneous
# [12] = system: Gallus gallus; assay: Toxicity in sporozoite-induced Plasmodium gallinaceum infected white leghorn chicken assessed as mortality at 160 mg/kg, sc administered 72 hrs after infection measured up to 6 days; format: organism-based; design: dose 160 mg/kg, route subcutaneous; conditions: in vivo
# [13] = system: Escherichia coli; assay: Antibacterial activity against Escherichia coli Vogel by gradient plate test; format: functional
# [14] = system: Plasmodium gallinaceum; assay: Antimalarial activity against sporozoite-induced Plasmodium gallinaceum infected in white leghorn chicken assessed as disease cure from parasite infection at 160 mg/kg, sc administered 72 hrs after infection; format: functional, organism-based; design: dose 160 mg/kg
# [15] = system: Plasmodium berghei; assay: Antimalarial activity against trophozoite-induced Plasmodium berghei infected in mouse assessed as daily dose required to suppression of 90% parasite infection administered with diet for 6 days; format: functional
# [16] = system: Plasmodium gallinaceum; assay: Antimalarial activity against trophozoite-induced Plasmodium gallinaceum infected in white leghorn chicken assessed as increase in mean survival days of host at 1.25 mg/kg, sc administered 72 hrs after infection relative to control; format: functional; conditions: route subcutaneous
# [17] = system: Plasmodium berghei; assay: Antimalarial activity against Plasmodium berghei infected in mouse assessed as disease cure from parasite infection at 640 mg/kg, sc administered 72 hrs after infection; format: functional, organism-based; design: dose 640 mg/kg
# [18] = system: Plasmodium gallinaceum; assay: Antimalarial activity against trophozoite-induced Plasmodium gallinaceum infected in white leghorn chicken assessed as increase in mean survival days of host at 20 mg/kg, sc administered 72 hrs after infection relative to control; format: functional; conditions: route subcutaneous
# [19] = system: Plasmodium berghei; assay: Antimalarial activity against Plasmodium berghei infected in mouse assessed as increase in mean survival days of host at 5 mg/kg, sc administered 72 hrs after infection relative to control; format: functional; conditions: route subcutaneous
# [20] = system: Plasmodium gallinaceum; assay: Antimalarial activity against sporozoite-induced Plasmodium gallinaceum infected in white leghorn chicken assessed as disease cure from parasite infection at 320 mg/kg, sc administered 72 hrs after infection; format: functional, organism-based; design: dose 320 mg/kg
# [21] = system: Plasmodium berghei; assay: Antimalarial activity against Plasmodium berghei infected in mouse assessed as disease cure from parasite infection at 320 mg/kg, sc administered 72 hrs after infection; format: functional, organism-based; design: dose 320 mg/kg
# [22] = system: Plasmodium gallinaceum; assay: Antimalarial activity against trophozoite-induced Plasmodium gallinaceum infected in white leghorn chicken assessed as increase in mean survival days of host at 5 mg/kg, sc administered 72 hrs after infection relative to control; format: functional; conditions: route subcutaneous
# [23] = system: Plasmodium berghei; assay: Antimalarial activity against Plasmodium berghei infected in mouse assessed as disease cure from parasite infection at 20 mg/kg, sc administered 72 hrs after infection; format: functional, organism-based; design: dose 20 mg/kg
# [24] = system: Plasmodium gallinaceum; assay: Antimalarial activity against sporozoite-induced Plasmodium gallinaceum infected in white leghorn chicken assessed as increase in mean survival days of host at 80 mg/kg, sc administered 72 hrs after infection relative to control; format: functional; conditions: route subcutaneous
# [25] = system: Pseudomonas aeruginosa; assay: Antibacterial activity against Pseudomonas aeruginosa 28 by gradient plate test; format: functional
# [26] = system: Plasmodium gallinaceum; assay: Antimalarial activity against trophozoite-induced Plasmodium gallinaceum infected in white leghorn chicken assessed as increase in mean survival days of host at 80 mg/kg, sc administered 72 hrs after infection relative to control; format: functional; conditions: route subcutaneous
# [27] = system: Plasmodium gallinaceum; assay: Antimalarial activity against sporozoite-induced Plasmodium gallinaceum infected in white leghorn chicken assessed as increase in mean survival days of host at 20 mg/kg, sc administered 72 hrs after infection relative to control; format: functional; conditions: route subcutaneous
# [28] = system: Plasmodium berghei; assay: Antimalarial activity against Plasmodium berghei infected in mouse assessed as increase in mean survival days of host at 1.25 mg/kg, sc administered 72 hrs after infection relative to control; format: functional; conditions: route subcutaneous
# [29] = system: Plasmodium berghei; assay: Antimalarial activity against Plasmodium berghei infected in mouse assessed as disease cure from parasite infection at 80 mg/kg, sc administered 72 hrs after infection; format: functional, organism-based; design: dose 80 mg/kg
# [30] = system: Staphylococcus aureus; assay: Antibacterial activity against Staphylococcus aureus UC-96 by gradient plate test; format: functional
# [31] = system: Plasmodium gallinaceum; assay: Antimalarial activity against sporozoite-induced Plasmodium gallinaceum infected in white leghorn chicken assessed as increase in mean survival days of host at 40 mg/kg, sc administered 72 hrs after infection relative to control; format: functional; conditions: route subcutaneous
# [32] = system: Plasmodium gallinaceum; assay: Antimalarial activity against trophozoite-induced Plasmodium gallinaceum infected in white leghorn chicken assessed as increase in mean survival days of host at 2.5 mg/kg, sc administered 72 hrs after infection relative to control; format: functional; conditions: route subcutaneous
# [33] = system: Plasmodium berghei; assay: Antimalarial activity against Plasmodium berghei infected in mouse assessed as increase in mean survival days of host at 10 mg/kg, sc administered 72 hrs after infection relative to control; format: functional; conditions: route subcutaneous
# [34] = system: Plasmodium berghei; assay: Antimalarial activity against Plasmodium berghei infected in mouse assessed as disease cure from parasite infection at 160 mg/kg, sc administered 72 hrs after infection; format: functional, organism-based; design: dose 160 mg/kg
# [35] = system: Plasmodium gallinaceum; assay: Antimalarial activity against trophozoite-induced Plasmodium gallinaceum infected in white leghorn chicken assessed as increase in mean survival days of host at 0.63 mg/kg, sc administered 72 hrs after infection relative to control; format: functional; conditions: route subcutaneous
# [36] = system: Staphylococcus aureus; assay: Antibacterial activity against drug-resistant Staphylococcus aureus S18713 by gradient plate test; format: functional
# [37] = system: Plasmodium gallinaceum; assay: Antimalarial activity against trophozoite-induced Plasmodium gallinaceum infected in white leghorn chicken assessed as disease cure from parasite infection at 320 mg/kg, sc administered 72 hrs after infection; format: functional, organism-based; design: dose 320 mg/kg
# [38] = system: Plasmodium gallinaceum; assay: Antimalarial activity against trophozoite-induced Plasmodium gallinaceum infected in white leghorn chicken assessed as increase in mean survival days of host at 160 mg/kg, sc administered 72 hrs after infection relative to control; format: functional; conditions: route subcutaneous
# [39] = system: Plasmodium gallinaceum; assay: Antimalarial activity against sporozoite-induced Plasmodium gallinaceum infected in white leghorn chicken assessed as disease cure from parasite infection at 40 mg/kg, sc administered 72 hrs after infection; format: functional, organism-based; design: dose 40 mg/kg
# [40] = system: Plasmodium gallinaceum; assay: Antimalarial activity against sporozoite-induced Plasmodium gallinaceum infected in white leghorn chicken assessed as disease cure from parasite infection at 80 mg/kg, sc administered 72 hrs after infection; format: functional, organism-based; design: dose 80 mg/kg
# [41] = system: Plasmodium gallinaceum; assay: Antimalarial activity against sporozoite-induced Plasmodium gallinaceum infected in white leghorn chicken assessed as disease cure from parasite infection at 10 mg/kg, sc administered 72 hrs after infection; format: functional, organism-based; design: dose 10 mg/kg
# [42] = system: Gallus gallus; assay: Toxicity in sporozoite-induced Plasmodium gallinaceum infected white leghorn chicken assessed as mortality at 320 mg/kg, sc administered 72 hrs after infection measured up to 6 days; format: organism-based; design: dose 320 mg/kg, route subcutaneous; conditions: in vivo
# [43] = system: Plasmodium gallinaceum; assay: Antimalarial activity against trophozoite-induced Plasmodium gallinaceum infected in white leghorn chicken assessed as increase in mean survival days of host at 40 mg/kg, sc administered 72 hrs after infection relative to control; format: functional; conditions: route subcutaneous
# [44] = system: Gallus gallus; assay: Toxicity in trophozoite-induced Plasmodium gallinaceum infected white leghorn chicken assessed as mortality at 320 mg/kg, sc administered 72 hrs after infection measured after 48 hrs; format: organism-based; design: dose 320 mg/kg, route subcutaneous; conditions: in vivo
compound,measurement,setting,value
Nc1nc(N)c2cc(Sc3ccc(F)cc3)ccc2n1,MST,[1],7.2 days
same,MIC,[2],< 0.25 µg/mL
same,Activity,[3],Active
same,Ratio,[4],210
same,Activity,[5],Active
same,MIC,[6],< 0.25 µg/mL
same,MST,[7],6.1 days
same,MST,[8],19.3 days
same,Activity,[9],Active
same,MST,[10],6.5 days
same,MST,[11],13.5 days
same,Activity,[12],Toxic
same,MIC,[13],< 0.25 µg/mL
same,Activity,[14],Active
same,SD90,[15],0.36 mg/kg/day
same,MST,[16],0 days
same,Activity,[17],Active
same,MST,[18],7.8 days
same,MST,[19],7.1 days
same,Activity,[20],Active
same,Activity,[21],Active
same,MST,[22],5.8 days
same,Activity,[23],Active
same,MST,[24],0.5 days
same,MIC,[25],> 25 µg/mL
same,MST,[26],13 days
same,MST,[27],0.5 days
same,MST,[28],5.3 days
same,Activity,[29],Active
same,MIC,[30],< 0.25 µg/mL
same,MST,[31],0.5 days
same,MST,[32],3.2 days
same,MST,[33],11.1 days
same,Activity,[34],Active
same,MST,[35],0 days
same,MIC,[36],< 0.25 µg/mL
same,Activity,[37],Active
same,MST,[38],15.5 days
same,Activity,[39],Active
same,Activity,[40],Active
same,Activity,[41],Active
same,Activity,[42],Toxic
same,MST,[43],9.2 days
CN(Cc1ccc(Cl)c(Cl)c1)c1ccc2nc(N)nc(N)c2c1,MST,[1],7.4 days
same,Activity,[44],Toxic
same,MST,[7],1.5 days
same,MST,[11],14.9 days
same,MST,[16],1.4 days
same,MST,[18],10.6 days
same,MST,[19],2.9 days
same,MST,[22],6.8 days
same,MST,[26],20.6 days
same,MST,[28],0.3 days
same,MST,[32],6 days
same,MST,[33],7.5 days
same,MST,[38],21 days
same,MST,[43],15.6 days
